Patent US20240101540A1, “TARGETED PROTEIN DEGRADATION OF PARP14 FOR USE IN THERAPY” (Ribon Therapeutics, Inc., priority 2022, published 2024)
Where a name gives a salt, the structure may show the parent alone.

The compounds below were run against T1, HiBiT tagged PARP14 (Homo sapiens, UniProt Q460N5) (assay: HiBiT assay for the degradation of PARP14 (HiBiT tagged PARP14 in LgBiT expressing Jurkat cells, 2 or 24 hours)). Conditions: Assay B (Example B): HiBiT tagged PARP14 degradation in LgBiT expressing Jurkat cells, read-out: DC50.
T1 construct: engineered to contain a HiBiT tag on both alleles of the PARP14 gene; endogenous in cells; host or cells: Jurkat cells stably transfected with LgBiT (Promega), PARP14 locus edited by CRISPR/Cas9
Type: cell-based
Procedure: Jurkat cells stably transfected with LgBiT (Promega) were engineered to contain a HiBiT tag on both alleles of the PARP14 gene (Genbank Accession Number: NM_017554) via CRISPR/Cas9 editing. The HiBiT tag is an 11 amino acid tag created by Promega that associates with LgBiT protein to form the NanoLuc® tag on the C-terminus of PARP14. Clones were isolated and confirmed for the HiBiT tag via Sanger sequencing.
Degradation of PARP14 protein was assessed by measuring the luminescence of the HiBiT tag associating with the LgBiT protein as a proxy for the PARP14 protein.
Jurkat cells were diluted to 250,000 cells per mL and then added to assay plate (Corning 3574) using a Multidrop (Thermo Fisher) to add 20 μL per well of the 384 well plate, resulting in 5,000 cells per well. 20 nL of a dose response curve diluted in DMSO of each test compound was added to the cell plate using a Mosquito (TTP Labtech) and the plate was incubated at 37° C. for 2 or 24 hours. Assay plate was brought to room temperature then 5 μL per well of Live Cell Substrate (Promega) was added to the plate. Luminescence was measured on an Envision (Perkin Elmer).
The average DMSO was calculated from 32 wells containing 0.1% DMSO only in columns 12 and 24 of the assay plate. The % of DMSO values were calculated as described below: […]
The % of DMSO values were plotted as a function of compound concentration and the following 4-parameter fit was applied to derive the DC50 values:
where top, bottom, and Hill Coefficient are allowed to float. Y is the % of DMSO and X is the compound concentration.
DC50 data for the Example compounds is provided below in Table 2 (“+” is ≤0.03 μM; “++” is ≥0.03 μM).

T1 sequence (Q460N5 whole entry): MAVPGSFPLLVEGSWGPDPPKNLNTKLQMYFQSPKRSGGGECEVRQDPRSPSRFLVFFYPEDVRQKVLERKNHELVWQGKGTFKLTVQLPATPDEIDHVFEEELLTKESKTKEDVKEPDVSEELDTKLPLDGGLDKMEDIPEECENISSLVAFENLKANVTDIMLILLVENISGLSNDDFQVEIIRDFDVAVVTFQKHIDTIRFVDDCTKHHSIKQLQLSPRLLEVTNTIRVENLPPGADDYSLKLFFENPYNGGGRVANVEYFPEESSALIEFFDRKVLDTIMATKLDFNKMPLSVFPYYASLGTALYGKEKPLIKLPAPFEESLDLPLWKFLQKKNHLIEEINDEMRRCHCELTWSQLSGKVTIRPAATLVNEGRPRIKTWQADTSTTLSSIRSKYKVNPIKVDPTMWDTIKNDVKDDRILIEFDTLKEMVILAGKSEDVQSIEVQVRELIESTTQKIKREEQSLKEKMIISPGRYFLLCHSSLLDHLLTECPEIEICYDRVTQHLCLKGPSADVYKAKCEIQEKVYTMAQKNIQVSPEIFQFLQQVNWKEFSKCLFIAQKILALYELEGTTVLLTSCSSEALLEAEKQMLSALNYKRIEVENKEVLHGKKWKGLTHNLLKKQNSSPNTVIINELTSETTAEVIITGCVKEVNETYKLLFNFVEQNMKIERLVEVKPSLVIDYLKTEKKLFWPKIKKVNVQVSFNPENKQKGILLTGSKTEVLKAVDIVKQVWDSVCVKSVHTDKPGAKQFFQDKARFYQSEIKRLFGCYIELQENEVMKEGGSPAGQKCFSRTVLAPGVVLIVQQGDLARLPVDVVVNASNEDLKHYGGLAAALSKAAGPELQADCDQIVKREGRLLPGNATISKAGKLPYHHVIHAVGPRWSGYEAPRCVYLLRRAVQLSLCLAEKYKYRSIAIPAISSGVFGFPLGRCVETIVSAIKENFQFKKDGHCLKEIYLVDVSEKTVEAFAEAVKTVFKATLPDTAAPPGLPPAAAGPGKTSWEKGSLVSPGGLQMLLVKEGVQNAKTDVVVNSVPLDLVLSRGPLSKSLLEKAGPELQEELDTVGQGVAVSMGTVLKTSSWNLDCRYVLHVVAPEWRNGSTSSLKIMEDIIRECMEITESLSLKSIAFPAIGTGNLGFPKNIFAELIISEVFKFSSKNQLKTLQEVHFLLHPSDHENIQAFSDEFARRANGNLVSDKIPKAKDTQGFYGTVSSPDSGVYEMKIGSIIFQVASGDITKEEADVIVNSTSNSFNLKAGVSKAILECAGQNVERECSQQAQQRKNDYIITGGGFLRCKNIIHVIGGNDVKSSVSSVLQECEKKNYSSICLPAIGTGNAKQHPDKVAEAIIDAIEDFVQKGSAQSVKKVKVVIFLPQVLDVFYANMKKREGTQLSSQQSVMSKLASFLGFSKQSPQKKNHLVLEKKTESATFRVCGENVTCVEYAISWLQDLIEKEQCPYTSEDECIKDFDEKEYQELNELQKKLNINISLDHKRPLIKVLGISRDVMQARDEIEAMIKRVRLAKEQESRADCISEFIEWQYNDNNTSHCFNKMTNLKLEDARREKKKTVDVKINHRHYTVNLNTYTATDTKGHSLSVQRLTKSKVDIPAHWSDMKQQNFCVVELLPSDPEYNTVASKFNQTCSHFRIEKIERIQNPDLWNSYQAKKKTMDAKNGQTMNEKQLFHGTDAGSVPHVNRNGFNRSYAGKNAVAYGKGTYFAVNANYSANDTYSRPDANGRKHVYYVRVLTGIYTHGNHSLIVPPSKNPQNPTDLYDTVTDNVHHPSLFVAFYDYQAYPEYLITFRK

DC50, < 30 nM:
Cn1nc(N2CCC(=O)NC2=O)c2cc(F)c(N3CCC(CN4CCC(COc5cc(F)c6c(=O)[nH]c(COC7CCOCC7)nc6c5)CC4)CC3)cc21 [Example 183, 1-(5-fluoro-6-(4-((4-(((5-fluoro-4-oxo-2-(((tetrahydro-2H-pyran-4-yl)oxy)methyl)-3,4-dihydroquinazolin-7-yl)oxy)methyl)piperidin-1-yl)methyl)piperidin-1-yl)-1-methyl-1H-indazol-3-yl)dihydropyrimidine-2,4(1H,3H)-dione]
O=C1CCC(Nc2ccc(N3CCN(CCN4CCC(COc5cc(F)c6c(=O)[nH]c(CSC7CCOCC7)nc6c5)CC4)C(=O)C3)c(F)c2)C(=O)N1 (stereo not shown) [Example 234, 3-((3-fluoro-4-(4-(2-(4-(((5-fluoro-4-oxo-2-(((tetrahydro-2H-pyran-4-yl)thio)methyl)-3,4-dihydroquinazolin-7-yl)oxy)methyl)piperidin-1-yl)ethyl)-3-oxopiperazin-1-yl)phenyl)amino)piperidine-2,6-dione]
O=C1CCC(Nc2ccc(N3CCC(N4CCC(CN5CCC(COc6cc(F)c7c(=O)[nH]c(CSC8CCOCC8)nc7c6)CC5)CC4)CC3)c(F)c2)C(=O)N1 (stereo not shown) [Example 224, 3-((3-fluoro-4-(4-((4-(((5-fluoro-4-oxo-2-(((tetrahydro-2H-pyran-4-yl)thio)methyl)-3,4-dihydroquinazolin-7-yl)oxy)methyl)piperidin-1-yl)methyl)-[1,4′-bipiperidin]-1′-yl)phenyl)amino)piperidine-2,6-dione]
O=C1CCC(Nc2ccc(N3CCC(C(=O)N4CC(N5CCC(COc6cc(F)c7c(=O)[nH]c(COC8CCOCC8)nc7c6)CC5)C4)CC3)c(F)c2)C(=O)N1 (stereo not shown) [Example 177, 3-((3-fluoro-4-(4-(3-(4-(((5-fluoro-4-oxo-2-(((tetrahydro-2H-pyran-4-yl)oxy)methyl)-3,4-dihydroquinazolin-7-yl)oxy)methyl)piperidin-1-yl)azetidine-1-carbonyl)piperidin-1-yl)phenyl)amino)piperidine-2,6-dione]
O=C1CCC(Nc2ccc(N3CCN(CCN4CCC(C#Cc5cc(F)c6c(=O)[nH]c(CSC7CCOCC7)nc6c5)CC4)CC3)c(F)c2)C(=O)N1 (stereo not shown) [Example 226, 3-((3-fluoro-4-(4-(2-(4-((5-fluoro-4-oxo-2-(((tetrahydro-2H-pyran-4-yl)thio)methyl)-3,4-dihydroquinazolin-7-yl)ethynyl)piperidin-1-yl)ethyl)piperazin-1-yl)phenyl)amino)piperidine-2,6-dione formate]
O=C1CCC(N2C(=O)c3ccc(N4CCC(N5CCC(COc6cc(F)c7c(=O)[nH]c(CSC8CCOCC8)nc7c6)CC5)CC4)cc3C2=O)C(=O)N1 (stereo not shown) [Example 190, 2-(2,6-dioxopiperidin-3-yl)-5-(4-(((5-fluoro-4-oxo-2-(((tetrahydro-2H-pyran-4-yl)thio)methyl)-3,4-dihydroquinazolin-7-yl)oxy)methyl)-[1,4′-bipiperidin]-1′-yl)isoindoline-1,3-dione]
O=C1CCC(Nc2cc(F)c(N3CCN(CCN4CCC(COc5cc(F)c6c(=O)[nH]c(CSC7CCOCC7)nc6c5)CC4)CC3)cc2F)C(=O)N1 (stereo not shown) [Example 141]
O=C1CCN(c2ccc(N3CCC(N4CCC(COc5cc(F)c6c(=O)[nH]c(CSC7CCOCC7)nc6c5)CC4)CC3)c(F)c2)C(=O)N1 [Example 158, 1-(3-fluoro-4-(4-(((5-fluoro-4-oxo-2-(((tetrahydro-2H-pyran-4-yl)thio)methyl)-3,4-dihydroquinazolin-7-yl)oxy)methyl)-[1,4′-bipiperidin]-1′-yl)phenyl)dihydropyrimidine-2,4(1H,3H)-dione formate]
O=C1CCN(c2cncc3c(N4CCC(N5CCC(COc6cc(F)c7c(=O)[nH]c(CSC8CCOCC8)nc7c6)CC5)CC4)cccc23)C(=O)N1 [Example 162, 1-(8-(4-(((5-fluoro-4-oxo-2-(((tetrahydro-2H-pyran-4-yl)thio)methyl)-3,4-dihydroquinazolin-7-yl)oxy)methyl)-[1,4′-bipiperidin]-1′-yl)isoquinolin-4-yl)dihydropyrimidine-2,4(1H,3H)-dione]
O=C1CCC(NC(=O)c2ccc(N3CCC(N4CCC(COc5cc(F)c6c(=O)[nH]c(CSC7CCOCC7)nc6c5)CC4)CC3)cc2F)C(=O)N1 (stereo not shown) [Example 149, N-(2,6-dioxopiperidin-3-yl)-2-fluoro-4-(4-(((5-fluoro-4-oxo-2-(((tetrahydro-2H-pyran-4-yl)thio)methyl)-3,4-dihydroquinazolin-7-yl)oxy)methyl)-[1,4′-bipiperidin]-1′-yl)benzamide]
O=C1CCC(NC(=O)C23CC(N4CCN(CCN5CCC(COc6cc(F)c7c(=O)[nH]c(CSC8CCOCC8)nc7c6)CC5)CC4)(C2)C3)C(=O)N1 (stereo not shown) [Example 134, N-(2,6-dioxopiperidin-3-yl)-3-(4-(2-(4-(((5-fluoro-4-oxo-2-(((tetrahydro-2H-pyran-4-yl)thio)methyl)-3,4-dihydroquinazolin-7-yl)oxy)methyl)piperidin-1-yl)ethyl)piperazin-1-yl)bicyclo[1.1.1]pentane-1-carboxamide]
O=C1CCN(c2cnc3cc(N4CCN(CCN5CCC(COc6cc(F)c7c(=O)[nH]c(CSC8CCOCC8)nc7c6)CC5)CC4)ccn23)C(=O)N1 [Example 209, 1-(7-(4-(2-(4-(((5-fluoro-4-oxo-2-(((tetrahydro-2H-pyran-4-yl)thio)methyl)-3,4-dihydroquinazolin-7-yl)oxy)methyl)piperidin-1-yl)ethyl)piperazin-1-yl)imidazo[1,2-a]pyridin-3-yl)dihydropyrimidine-2,4(1H,3H)-dione diformate]
O=C1CCC(Nc2ccc(N3CCC(N4CCC(COc5cc(F)c6c(=O)[nH]c(CSC7CCOCC7)nc6c5)CC4)CC3)cc2F)C(=O)N1 (stereo not shown) [Example 222, 3-((2-fluoro-4-(4-(((5-fluoro-4-oxo-2-(((tetrahydro-2H-pyran-4-yl)thio)methyl)-3,4-dihydroquinazolin-7-yl)oxy)methyl)-[1,4′-bipiperidin]-1′-yl)phenyl)amino)piperidine-2,6-dione]
Cn1nc(N2CCC(=O)NC2=O)c2ccc(C3CCN(CCN4CCC(COc5cc(F)c6c(=O)[nH]c(COC7CCOCC7)nc6c5)CC4)CC3)c(F)c21 [Example 205, 1-(7-fluoro-6-(1-(2-(4-(((5-fluoro-4-oxo-2-(((tetrahydro-2H-pyran-4-yl)oxy)methyl)-3,4-dihydroquinazolin-7-yl)oxy)methyl)piperidin-1-yl)ethyl)piperidin-4-yl)-1-methyl-1H-indazol-3-yl)dihydropyrimidine-2,4(1H,3H)-dione]
O=C1CCC(Nc2ccc(N3CCN(CCN4CCC(COc5cc(F)c6c(=O)[nH]c(COC7CCOCC7)nc6c5)CC4)CC3)cc2F)C(=O)N1 (stereo not shown) [Example 192, 3-((2-fluoro-4-(4-(2-(4-(((5-fluoro-4-oxo-2-(((tetrahydro-2H-pyran-4-yl)oxy)methyl)-3,4-dihydroquinazolin-7-yl)oxy)methyl)piperidin-1-yl)ethyl)piperazin-1-yl)phenyl)amino)piperidine-2,6-dione diformate]
O=C1CCC(Nc2ccc(N3CCN(C4CCN(CCOc5cc(F)c6c(=O)[nH]c(CSC7CCOCC7)nc6c5)CC4)CC3)c(F)c2)C(=O)N1 (stereo not shown) [Example 126]
